In data set [1] the target is recombinant human DHODH (Homo sapiens (Human), UniProt Q02127). As to the kind of experiment: DHODH enzyme assay (Assay A), DCIP absorbance. The class given is biochemical. To be noted: bins ≥10 nM-<100 nM and <10 nM; read-out: IC50 DHODH inhibition activity. The protocol: Inhibition of human dihydroorotate dehydrogenase (DHODH) by example compounds as described herein was determined using one of two assays as described below.
DHODH enzyme assays were performed with 6 nM recombinant human DHODH (purified essentially as described by Walse et al., Biochemistry, 47, 8929-8936 (2008)). The reaction mixture consisted of 1 mM DL-dihydroorotic acid (#D7003, Sigma-Aldrich), 100 μM 3,4-dimethoxy-5-methyl-p-benzoquinone (#D9150, Sigma-Aldrich), and 100 μM 2,6-dichlorophenolindophenol sodium salt (DCIP) (#D1878, Sigma-Aldrich) in enzyme buffer (50 mM Tris-HCl pH 8.0, 0.1% Triton X-100, 150 mM KCl). A stock solution of 20 mM DCIP was prepared in enzyme buffer and filtered through Whatman paper just before use. Reactions were performed in a total volume of 100 μL, consisting of 1 μL of compound, 49 μL of enzyme and 50 μL of reaction mixture. Loss in absorbance by chromogen DCIP was measured at 595 nm following a 70 minute incubation at 32° C.

The test system of data set [2] is MOLM-13 cells. The data set can be described thus: MOLM-13 cell viability (Assay B), Cell Titer-Glo. It is filed as cell-based. To be noted: for pIC50: Homo sapiens, read-out: IC50 MOLM13 inhibition activity. The method, then: MOLM-13 cells (an acute myeloid leukemia cell line) were plated in RPMI supplied with 10% FBS and 1% Pen/Strep in 384-well plates at 1,000 cells per well on day 0. On day 1, treatment of the cells with compound (concentration range 10E-5 and 6E-12 M) was initiated in the presence or absence of 100 μM uridine. After 72 hours incubation of the cells with or without test compound, the number of viable cells per well was assessed by Cell Titer-Glo Luminescent Cell Viability Assay (Promega, Madison, WI, USA). […] Each condition was tested in duplicate and the potency of test compounds was determined from two independent experiments.
(In general: ATP-based viability assays read luminescence as a measure of living cells.)

The nature of data set [3]: in vitro. The conditions noted are these: for HLM % remaining: % remaining at 60 min, 1 μM; for half-life at 1 μM: both, human. The method, then:
Human Liver Microsomal metabolic stability: The microsomal metabolic stability assay utilized pooled human liver microsomes (mixed gender, BD Gentest), with supplemented cofactors NADPH and UDPGA (Solarbio S&T Co., LTD). Two separate experiments were performed as follows: • a) With cofactors (NADPH & UDPGA): 25 μL of 10 mM NADPH and 25 μL of 20 mM UDPGA were added to 197.5 μL of reaction solution (phosphate buffer (final concentration in assay 100 mM), MgCl2 (final concentration in assay (5 mM)), alamethacin (final concentration in assay 0.025 mg/mL) and microsomes (final concentration in assay 0.5 mg/mL). • b) Without cofactors (NADPH & UDPGA): 50 μL of H2O was added to 197.5 μL of reaction solution.
The mixture was pre-warmed at 37° C. for 10 minutes. The reaction was started with the addition of 2.5 μL of 100 μM control compound or test compound solutions. Diclofenac was used as positive control in this study. The final concentration of control compound and test compounds was 1 μM. Aliquots of 25 μL were taken from the reaction solution at 0.5, 5, 15, 30 and 60 minutes. The reaction was stopped by the addition of 5 volumes of cold acetonitrile containing internal standards. Samples were centrifuged at 3,220 g for 40 minutes. An aliquot of 100 μL of the supernatant was mixed with 100 μL of ultra-pure H2O and then used for LC-MS/MS analysis. Peak areas were determined from extracted ion chromatograms. Percent parent remaining was calculated from the area ratio of test compound. The slope value was determined by linear regression of the natural logarithm of percent parent remaining versus incubation time curve.
(§1) Peak areas were determined from extracted ion chromatograms to determine the in vitro half-life (t½) of parent compound by regression analysis of the percent parent disappearance vs. time curve. The in vitro half-life (in vitro t½) was determined from the slope value (in vitro t½=−0.693/k). All calculations were carried out using Microsoft Excel.

Data set [4] can be described thus: in vitro. The conditions noted are these: for hHEPs % remaining: 1 μM. The method, then: Human Hepatocyte metabolic stability: Human hepatocytes (X008000, BioIVT) were freshly thawed prior to the incubations with test compound. Hepatocytes were transferred to 50 mL conical tubes and centrifuged 10 min at 100 g. Thawing medium was removed and replaced by preheated (37° C.) incubation medium (William's E Medium supplemented with GlutaMAX), to yield a hepatocyte density ˜1.5×10^6 cells/mL. Cell viability was determined using AO/PI staining and hepatocytes were diluted using incubation medium to a working density of 0.5×10^6 viable cells/mL. 198 μL of hepatocytes were added into each well of a 96-well plate and placed in the incubator to allow the hepatocytes to warm for 10 minutes. 2 μL test compound or positive control was placed into respective wells of the 96-well plate (final concentration test compound 1 μM) to start the reaction. The plate was returned to the incubator and 25 μL aliquots of the well contents were removed at time points of 0, 15, 30, 60, 90 and 120 minutes. The aliquots were mixed with 6 volumes (150 μL) of acetonitrile containing internal standards (100 nM alprazolam, 200 nM caffeine, and 100 nM tolbutamide) to terminate the reaction. The plate was centrifuged for 20 minutes at 3,200 g. Aliquots of 150 μL of the supernatants were used for LC/MS/MS analysis. All incubations were performed in duplicate.
as §1

[5] abbreviates: MOLM-13, 72 hours, bins ≥10 nM-<100 nM and <10 nM.

SMILES strings stand for the structures. pIC50: −log10 of the molar value. Like-named read-outs stand apart in the source and are kept apart here.

For orientation: pIC50 means −log10 of the IC50, conventionally taken in molar units. In general, half-life refers to the time needed for the level to fall by half in the phase considered. Read a low half-life as fast loss.

Chain of recombinant human DHODH (Q02127 whole entry): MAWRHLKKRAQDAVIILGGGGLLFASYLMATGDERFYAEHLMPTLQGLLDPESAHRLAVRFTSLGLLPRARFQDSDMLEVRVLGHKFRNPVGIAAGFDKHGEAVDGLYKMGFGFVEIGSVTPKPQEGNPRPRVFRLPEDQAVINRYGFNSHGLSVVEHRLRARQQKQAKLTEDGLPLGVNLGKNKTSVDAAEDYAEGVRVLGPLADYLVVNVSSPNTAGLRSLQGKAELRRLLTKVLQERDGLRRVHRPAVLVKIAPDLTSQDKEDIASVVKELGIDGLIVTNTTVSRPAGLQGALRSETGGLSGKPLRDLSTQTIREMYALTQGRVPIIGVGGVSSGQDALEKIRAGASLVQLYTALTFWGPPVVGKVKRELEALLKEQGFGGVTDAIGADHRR

On to `O=C(N[C@@H]1COCc2c1cnn2-c1ccccc1F)c1ncn2c1CCCC2` (single isomer, unassigned) [Ex-3], for which the pIC50 in data set [1] and in data set [2] (setting [5]) was 7.00 to 8.00 throughout. In data set [3], the HLM % remaining amounted to 92%. For the same compound, the half-life at 1 μM was over 365 min in data set [3] (pooled liver microsomes) and 598 min in data set [4] (human, hepatocytes). Moreover, the hHEPs % remaining in data set [4] (human, hepatocytes, 2 h) came to 87%.

Consider `O=C(N[C@@H]1COCc2c1cnn2-c1ccccc1F)c1ncc2n1CCCC2` (single isomer, unassigned) [Ex-6], for which the pIC50 in data set [1] and in data set [2] (setting [5]) was 7.00 to 8.00 throughout. This compound came in with an HLM % remaining in data set [3] of 85%. For the same compound, the half-life at 1 μM in data set [3] (pooled liver microsomes) was found to be 285 min; in data set [4] (human, hepatocytes), 294 min. Further, in data set [4] (human, hepatocytes, 2 h), the hHEPs % remaining is on record as 87%.

As for `O=C(N[C@@H]1COCc2c1cnn2-c1c(F)cccc1Cl)c1ncn2c1CCCC2` (single isomer, unassigned) [Ex-11], the pIC50 in data set [1] and in data set [2] (setting [5]) was over 8.00 in each case. In addition, the “MOLM13 cell growth and/or viability (FIG. 2)” value in data set [2] (absence of uridine) is given as “reduce MOLM13 cell growth and/or viability”. The “effect on MOLM13 cell growth and/or viability on addition of excess uridine (FIG. 2)” value in data set [2] (presence of 100 μM uridine) was “largely prevented”. The compound also yielded an HLM % remaining in data set [3] of 93%. Further, the half-life at 1 μM is over 365 min in data set [3] (pooled liver microsomes) and over 600 min in data set [4] (human, hepatocytes). Also, the hHEPs % remaining in data set [4] (% remaining at 120 min) is 90%.

Turning to `O=C(N[C@@H]1COCc2c1cnn2-c1c(Cl)cccc1Cl)c1ncn2c1CCCC2` (single isomer, unassigned) [Ex-13], the pIC50 in data set [1] and in data set [2] (setting [5]) was over 8.00 throughout. Moreover, in data set [3], the HLM % remaining was 88%. Moreover, the half-life at 1 μM was over 365 min in data set [3] (pooled liver microsomes) and over 600 min in data set [4] (human, hepatocytes). The hHEPs % remaining in data set [4] (% remaining at 120 min) is 95%.

Consider `Cc1cccc(Cl)c1-n1ncc2c1COC[C@H]2NC(=O)c1ncn2c1CCCC2` [Ex-34, (S)—N-(1-(2-chloro-6-methylphenyl)-1,4,5,7-tetrahydropyrano[3,4-c]pyrazol-4-yl)-5,6,7,8-tetrahydroimidazo[1,5-a]pyridine-1-carboxamide], for which the pIC50 was over 8.00 in data set [1] and over 8.00 in data set [2] (MOLM-13, 72 h). This compound also displayed an HLM % remaining in data set [3] of 100%. The half-life at 1 μM was 337 min in data set [3] (microsomes) and over 600 min in data set [4] (human, hepatocytes). Moreover, the hHEPs % remaining in data set [4] (% remaining at 120 min) turned out to be 100%.

Regarding `CCc1c(C(=O)N[C@@H]2COCc3c2cnn3-c2ccccc2F)ncn1C` [Ex-41, (S)-5-ethyl-N-(1-(2-fluorophenyl)-1,4,5,7-tetrahydropyrano[3,4-c]pyrazol-4-yl)-1-methyl-1H-imidazole-4-carboxamide], the pIC50 in data set [1] and in data set [2] (setting [5]) was 7.00 to 8.00 each time. This compound returned an HLM % remaining in data set [3] of 100%. The half-life at 1 μM in data set [3] (pooled liver microsomes) is over 365 min; in data set [4] (human, hepatocytes), over 600 min. The hHEPs % remaining in data set [4] (% remaining at 120 min) amounted to 100%.

`O=C(N[C@@H]1COCc2c1cnn2-c1ccccc1F)c1n[nH]c2c1CCCC2` [Ex-42, (S)—N-(1-(2-fluorophenyl)-1,4,5,7-tetrahydropyrano[3,4-c]pyrazol-4-yl)-4,5,6,7-tetrahydro-1H-indazole-3-carboxamide]: the HLM % remaining in data set [3] was 85%. Besides, the half-life at 1 μM in data set [3] (pooled liver microsomes) came to 236 min; in data set [4] (human, hepatocytes) it was 326 min. Further, in data set [4] (% remaining at 120 min), the hHEPs % remaining came out at 76%.

In the case of `O=C(N[C@@H]1COCc2c1cnn2-c1ccccc1F)c1noc2c1CCCC2` [Ex-43, (S)—N-(1-(2-fluorophenyl)-1,4,5,7-tetrahydropyrano[3,4-c]pyrazol-4-yl)-4,5,6,7-tetrahydrobenzo[d]isoxazole-3-carboxamide], in data set [3], the HLM % remaining is listed as 92%. Further, the half-life at 1 μM in data set [3] (pooled liver microsomes) is over 365 min; in data set [4] (human, hepatocytes), over 600 min. In data set [4] (% remaining at 120 min), this compound returned a hHEPs % remaining of 93%.

As for `CCc1c(C(=O)N[C@@H]2COCc3c2cnn3-c2ccccc2F)n[nH]c1C` [Ex-44, (S)-4-ethyl-N-(1-(2-fluorophenyl)-1,4,5,7-tetrahydropyrano[3,4-c]pyrazol-4-yl)-5-methyl-1H-pyrazole-3-carboxamide], in data set [3], the HLM % remaining is 92%. Moreover, the half-life at 1 μM in data set [3] (pooled human liver microsomes) is over 365 min; in data set [4] (human, hepatocytes), 561 min.

Compound `Cc1cnc(C(=O)N[C@@H]2COCc3c2cnn3-c2ccccc2F)cc1C` [Ex-45, (S)—N-(1-(2-fluorophenyl)-1,4,5,7-tetrahydropyrano[3,4-c]pyrazol-4-yl)-4,5-dimethylpicolinamide] registered an HLM % remaining in data set [3] of 88%. The half-life at 1 μM in data set [3] (pooled liver microsomes) turned out to be 274 min; in data set [4] (human, hepatocytes) it was 286 min. The compound further yielded a hHEPs % remaining in data set [4] (% remaining at 120 min) of 72%.

Turning to `O=C(N[C@@H]1COCc2c1cnn2-c1c(F)cccc1Cl)c1n[nH]c2c1CCCC2` [Ex-46, (S)—N-(1-(2-chloro-6-fluorophenyl)-1,4,5,7-tetrahydropyrano[3,4-c]pyrazol-4-yl)-4,5,6,7-tetrahydro-1H-indazole-3-carboxamide], the pIC50 in data set [1] and in data set [2] (setting [5]) was 7.00 to 8.00 in each case. For the same compound, the HLM % remaining in data set [3] stood at 90%. Further, the half-life at 1 μM is over 365 min in data set [3] (pooled liver microsomes) and over 600 min in data set [4] (human, hepatocytes). Further, the hHEPs % remaining in data set [4] (% remaining at 120 min) turned out to be 89%.

With `O=C(N[C@@H]1COCc2c1cnn2-c1c(F)cccc1Cl)c1ncc2n1CCCC2` [Ex-47, (S)—N-(1-(2-chloro-6-fluorophenyl)-1,4,5,7-tetrahydropyrano[3,4-c]pyrazol-4-yl)-5,6,7,8-tetrahydroimidazo[1,5-a]pyridine-3-carboxamide], the pIC50 in data set [1] and in data set [2] (setting [5]) was over 8.00 in each case. This compound also showed an HLM % remaining in data set [3] of 75%. Moreover, the half-life at 1 μM in data set [3] (pooled liver microsomes) is 133 min; in data set [4] (human, hepatocytes), 540 min. In addition, in data set [4] (% remaining at 120 min), the hHEPs % remaining is given as 84%.

For the compound `Cc1cnc(C(=O)N[C@@H]2COCc3c2cnn3-c2c(F)cccc2Cl)cc1C` [Ex-48, (S)—N-(1-(2-chloro-6-fluorophenyl)-1,4,5,7-tetrahydropyrano[3,4-c]pyrazol-4-yl)-4,5-dimethylpicolinamide], the pIC50 in data set [1] and in data set [2] (setting [5]) was 7.00 to 8.00 in each case. For the same compound, the HLM % remaining in data set [3] came out at 96%. In addition, the half-life at 1 μM in data set [3] (pooled liver microsomes) came to 365 min; in data set [4] (human, hepatocytes), 358 min. In data set [4] (% remaining at 120 min), this compound yielded a hHEPs % remaining of 82%.
